Results: ChEMBL document CHEMBL4699583 (J Med Chem, 2020)
Active and inactive are the calls of the source. No cut-off for these calls is given here.

Columns and labels:
[1] = target: Cannabinoid receptor 1 (Homo sapiens) (UniProt P21554); test: Agonist activity at human cannabinoid receptor 1 at 2 uM by cell based cAMP assay; format: functional
[2] = target: DNA topoisomerase 2-alpha (Homo sapiens, UniProt P11388); test: Poison activity at human topoisomerase 2alpha in human Hela cells assessed as H2AX phosphorylation at 10 uM incubated for 90 mins by Western blot analysis; format: cell-based
[3] = target: Adenosine receptor A2a (Homo sapiens) (UniProt P29274); test: Antagonist activity at human adenosine A2A at 2 uM by cell based calcium flux assay; format: functional
[4] = target: Beta-1 adrenergic receptor (Homo sapiens) (UniProt P08588); test: Agonist activity at human adrenergic beta1 receptor at 2 uM by cell based cAMP assay; format: functional
[5] = target: Alpha-2A adrenergic receptor (Homo sapiens) (UniProt P08913); test: Agonist activity at human alpha-2A adrenergic receptor at 2 uM by cell based cAMP assay; format: functional
Chain of Alpha-2A adrenergic receptor (Homo sapiens) (P08913 whole entry): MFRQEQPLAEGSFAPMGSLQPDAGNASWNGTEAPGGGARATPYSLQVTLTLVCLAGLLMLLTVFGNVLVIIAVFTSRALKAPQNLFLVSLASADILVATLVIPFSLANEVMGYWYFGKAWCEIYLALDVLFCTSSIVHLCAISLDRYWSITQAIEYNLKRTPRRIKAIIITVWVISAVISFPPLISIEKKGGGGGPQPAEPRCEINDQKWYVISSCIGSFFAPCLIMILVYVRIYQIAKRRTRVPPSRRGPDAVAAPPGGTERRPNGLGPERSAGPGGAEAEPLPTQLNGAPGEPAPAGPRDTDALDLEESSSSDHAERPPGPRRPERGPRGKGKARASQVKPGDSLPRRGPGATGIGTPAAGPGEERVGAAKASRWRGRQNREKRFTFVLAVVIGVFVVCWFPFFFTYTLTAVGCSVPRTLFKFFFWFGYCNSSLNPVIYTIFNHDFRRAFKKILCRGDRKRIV

[6] = target: Alpha-2A adrenergic receptor (Homo sapiens) (UniProt P08913); test: Antagonist activity at human alpha-2A adrenergic receptor at 2 uM by cell based cAMP assay; format: functional
[7] = target: Beta-2 adrenergic receptor (Homo sapiens) (UniProt P07550); test: Antagonist activity at human beta-2 adrenergic receptor at 2 uM by cell based cAMP assay; format: functional
[8] = target: Vasopressin V1a receptor (Homo sapiens) (UniProt P37288); test: Antagonist activity at human vasopressin V1a receptor at 2 uM by cell based calcium flux assay; format: functional
[9] = target: Cholecystokinin receptor type A (Homo sapiens) (UniProt P32238); test: Agonist activity at human cholecystokinin typeA receptor at 2 uM by cell based calcium flux assay; format: functional
[10] = target: Cholecystokinin receptor type A (Homo sapiens) (UniProt P32238); test: Antagonist activity at human cholecystokinin typeA receptor at 2 uM by cell based calcium flux assay; format: functional
[11] = target: Muscarinic acetylcholine receptor M1 (Homo sapiens) (UniProt P11229); test: Agonist activity at human muscarinic acetylcholine receptor M1 at 2 uM by cell based calcium flux assay; format: functional
Chain of Muscarinic acetylcholine receptor M1 (Homo sapiens) (P11229 whole entry): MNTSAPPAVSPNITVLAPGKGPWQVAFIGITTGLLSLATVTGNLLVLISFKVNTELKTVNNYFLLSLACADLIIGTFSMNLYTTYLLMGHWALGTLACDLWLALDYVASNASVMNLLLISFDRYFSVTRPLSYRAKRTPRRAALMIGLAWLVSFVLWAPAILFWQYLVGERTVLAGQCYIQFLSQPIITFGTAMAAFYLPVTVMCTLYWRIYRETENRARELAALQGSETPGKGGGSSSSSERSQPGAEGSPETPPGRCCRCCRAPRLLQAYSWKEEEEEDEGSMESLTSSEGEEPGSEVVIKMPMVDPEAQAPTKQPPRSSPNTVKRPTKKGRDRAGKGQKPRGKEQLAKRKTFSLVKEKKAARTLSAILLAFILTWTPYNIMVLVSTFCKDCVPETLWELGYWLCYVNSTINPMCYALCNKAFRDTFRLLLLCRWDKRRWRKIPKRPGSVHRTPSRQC

[12] = target: Muscarinic acetylcholine receptor M1 (Homo sapiens) (UniProt P11229); test: Antagonist activity at human muscarinic acetylcholine receptor M1 at 2 uM by cell based calcium flux assay; format: functional
[13] = target: Muscarinic acetylcholine receptor M2 (Homo sapiens) (UniProt P08172); test: Agonist activity at human muscarinic acetylcholine receptor M2 at 2 uM by cell based cAMP assay; format: functional
[14] = target: Muscarinic acetylcholine receptor M3 (Homo sapiens) (UniProt P20309); test: Agonist activity at human muscarinic acetylcholine receptor M3 at 2 uM by cell based calcium flux assay; format: functional
Chain of Muscarinic acetylcholine receptor M3 (Homo sapiens) (P20309 whole entry, looked up): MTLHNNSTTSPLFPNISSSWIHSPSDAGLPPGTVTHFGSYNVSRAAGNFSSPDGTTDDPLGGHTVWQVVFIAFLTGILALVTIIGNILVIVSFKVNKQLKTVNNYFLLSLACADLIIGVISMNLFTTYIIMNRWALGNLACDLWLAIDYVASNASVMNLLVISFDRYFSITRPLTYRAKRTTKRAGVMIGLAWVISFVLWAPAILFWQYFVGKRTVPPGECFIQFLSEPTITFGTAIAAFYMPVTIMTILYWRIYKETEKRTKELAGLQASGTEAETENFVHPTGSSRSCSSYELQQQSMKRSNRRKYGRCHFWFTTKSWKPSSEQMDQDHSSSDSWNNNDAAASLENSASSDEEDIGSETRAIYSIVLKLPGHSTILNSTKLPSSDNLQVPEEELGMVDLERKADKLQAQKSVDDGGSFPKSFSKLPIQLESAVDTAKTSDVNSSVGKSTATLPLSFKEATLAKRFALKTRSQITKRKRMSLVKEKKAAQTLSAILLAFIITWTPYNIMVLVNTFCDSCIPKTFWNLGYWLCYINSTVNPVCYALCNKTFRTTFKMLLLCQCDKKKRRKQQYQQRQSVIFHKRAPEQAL

[15] = target: Muscarinic acetylcholine receptor M3 (Homo sapiens) (UniProt P20309); test: Antagonist activity at human muscarinic acetylcholine receptor M3 at 2 uM by cell based calcium flux assay; format: functional
[16] = target: Cannabinoid receptor 1 (Homo sapiens) (UniProt P21554); test: Antagonist activity at human cannabinoid receptor 1 at 2 uM by cell based cAMP assay; format: functional
[17] = target: Cannabinoid receptor 2 (Homo sapiens) (UniProt P34972); test: Antagonist activity at human cannabinoid receptor 2 at 2 uM by cell based cAMP assay; format: functional
[18] = target: D(1A) dopamine receptor (Homo sapiens) (UniProt P21728); test: Antagonist activity at human dopamine D1 receptor at 2 uM by cell based cAMP assay; format: functional
[19] = target: D(2) dopamine receptor (Homo sapiens) (UniProt P14416); test: Antagonist activity at human dopamine D2S receptor at 2 uM by cell based cAMP assay; format: functional
[20] = target: Endothelin-1 receptor (Homo sapiens) (UniProt P25101); test: Agonist activity at human endothelin 1 receptor at 2 uM by cell based calcium flux assay; format: functional
[21] = target: Histamine H1 receptor (Homo sapiens) (UniProt P35367); test: Agonist activity at human histamine H1 receptor at 2 uM by cell based calcium flux assay; format: functional
[22] = target: Histamine H2 receptor (Homo sapiens) (UniProt P25021); test: Antagonist activity at human histamine H2 receptor at 2 uM by cell based cAMP assay; format: functional
[23] = target: 5-hydroxytryptamine receptor 1A (Homo sapiens) (UniProt P08908); test: Agonist activity at human 5HT1A receptor at 2 uM by cell based cAMP assay; format: functional
[24] = target: 5-hydroxytryptamine receptor 1A (Homo sapiens) (UniProt P08908); test: Antagonist activity at human 5HT1A receptor at 2 uM by cell based cAMP assay; format: functional
[25] = target: 5-hydroxytryptamine receptor 1B (Homo sapiens) (UniProt P28222); test: Agonist activity at human 5HT1B receptor at 2 uM by cell based cAMP assay; format: functional
Chain of 5-hydroxytryptamine receptor 1B (Homo sapiens) (P28222 whole entry): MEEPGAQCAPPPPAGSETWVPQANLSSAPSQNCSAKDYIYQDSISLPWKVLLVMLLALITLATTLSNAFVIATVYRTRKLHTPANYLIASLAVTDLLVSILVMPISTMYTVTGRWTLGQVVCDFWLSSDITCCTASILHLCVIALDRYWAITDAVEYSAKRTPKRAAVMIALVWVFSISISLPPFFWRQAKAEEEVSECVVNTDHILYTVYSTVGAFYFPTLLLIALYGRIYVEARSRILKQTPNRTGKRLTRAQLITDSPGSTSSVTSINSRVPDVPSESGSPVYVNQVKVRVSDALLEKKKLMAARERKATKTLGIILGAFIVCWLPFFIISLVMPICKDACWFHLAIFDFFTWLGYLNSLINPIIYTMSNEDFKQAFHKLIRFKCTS

[26] = target: 5-hydroxytryptamine receptor 1B (Homo sapiens) (UniProt P28222); test: Antagonist activity at human 5HT1B receptor at 2 uM by cell based cAMP assay; format: functional
[27] = target: 5-hydroxytryptamine receptor 2A (Homo sapiens) (UniProt P28223); test: Antagonist activity at human 5HT2A receptor at 2 uM by cell based calcium flux assay; format: functional
[28] = target: 5-hydroxytryptamine receptor 2B (Homo sapiens) (UniProt P41595); test: Antagonist activity at human 5HT2B receptor at 2 uM by cell based calcium flux assay; format: functional
[29] = target: Kappa-type opioid receptor (Homo sapiens) (UniProt P41145); test: Agonist activity at human kappa opioid receptor at 2 uM by cell based cAMP assay; format: functional
[30] = target: Mu-type opioid receptor (Homo sapiens) (UniProt P35372); test: Agonist activity at human mu opioid receptor at 2 uM by cell based cAMP assay; format: functional
[31] = target: Androgen receptor (Homo sapiens) (UniProt P10275); test: Agonist activity at human androgen receptor at 2 uM by cell based nuclear translocation assay
Chain of Androgen receptor (Homo sapiens) (P10275 whole entry): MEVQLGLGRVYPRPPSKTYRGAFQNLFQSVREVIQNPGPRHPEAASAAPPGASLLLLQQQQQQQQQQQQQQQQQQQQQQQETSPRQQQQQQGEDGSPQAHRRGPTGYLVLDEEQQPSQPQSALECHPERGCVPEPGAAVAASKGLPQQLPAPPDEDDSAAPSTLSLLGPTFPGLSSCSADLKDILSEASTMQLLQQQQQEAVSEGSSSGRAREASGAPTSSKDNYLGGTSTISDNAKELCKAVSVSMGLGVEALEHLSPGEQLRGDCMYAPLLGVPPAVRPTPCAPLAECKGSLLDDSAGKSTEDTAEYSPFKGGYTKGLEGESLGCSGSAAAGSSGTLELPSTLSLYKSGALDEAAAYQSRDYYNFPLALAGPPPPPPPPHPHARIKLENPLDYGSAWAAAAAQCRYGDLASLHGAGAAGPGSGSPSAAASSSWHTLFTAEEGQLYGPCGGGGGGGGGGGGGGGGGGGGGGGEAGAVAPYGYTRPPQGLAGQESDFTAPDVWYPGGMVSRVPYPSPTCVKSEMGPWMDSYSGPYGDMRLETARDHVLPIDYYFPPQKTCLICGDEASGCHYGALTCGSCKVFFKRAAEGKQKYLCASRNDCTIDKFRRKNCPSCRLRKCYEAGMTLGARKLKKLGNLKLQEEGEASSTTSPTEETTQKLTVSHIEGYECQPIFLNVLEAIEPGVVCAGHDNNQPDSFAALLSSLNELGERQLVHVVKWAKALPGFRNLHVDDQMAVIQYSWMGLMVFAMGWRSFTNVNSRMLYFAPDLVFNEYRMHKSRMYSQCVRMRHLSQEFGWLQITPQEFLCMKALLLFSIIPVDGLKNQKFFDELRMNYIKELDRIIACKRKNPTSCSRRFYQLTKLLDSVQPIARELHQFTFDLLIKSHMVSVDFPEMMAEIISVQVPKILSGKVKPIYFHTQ

[32] = target: Androgen receptor (Homo sapiens) (UniProt P10275); test: Antagonist activity at human androgen receptor at 2 uM by cell based nuclear translocation assay
[33] = target: Glucocorticoid receptor (Homo sapiens) (UniProt P04150); test: Agonist activity at human glucocorticoid receptor at 2 uM by cell based assay
Chain of Glucocorticoid receptor (Homo sapiens) (P04150 whole entry): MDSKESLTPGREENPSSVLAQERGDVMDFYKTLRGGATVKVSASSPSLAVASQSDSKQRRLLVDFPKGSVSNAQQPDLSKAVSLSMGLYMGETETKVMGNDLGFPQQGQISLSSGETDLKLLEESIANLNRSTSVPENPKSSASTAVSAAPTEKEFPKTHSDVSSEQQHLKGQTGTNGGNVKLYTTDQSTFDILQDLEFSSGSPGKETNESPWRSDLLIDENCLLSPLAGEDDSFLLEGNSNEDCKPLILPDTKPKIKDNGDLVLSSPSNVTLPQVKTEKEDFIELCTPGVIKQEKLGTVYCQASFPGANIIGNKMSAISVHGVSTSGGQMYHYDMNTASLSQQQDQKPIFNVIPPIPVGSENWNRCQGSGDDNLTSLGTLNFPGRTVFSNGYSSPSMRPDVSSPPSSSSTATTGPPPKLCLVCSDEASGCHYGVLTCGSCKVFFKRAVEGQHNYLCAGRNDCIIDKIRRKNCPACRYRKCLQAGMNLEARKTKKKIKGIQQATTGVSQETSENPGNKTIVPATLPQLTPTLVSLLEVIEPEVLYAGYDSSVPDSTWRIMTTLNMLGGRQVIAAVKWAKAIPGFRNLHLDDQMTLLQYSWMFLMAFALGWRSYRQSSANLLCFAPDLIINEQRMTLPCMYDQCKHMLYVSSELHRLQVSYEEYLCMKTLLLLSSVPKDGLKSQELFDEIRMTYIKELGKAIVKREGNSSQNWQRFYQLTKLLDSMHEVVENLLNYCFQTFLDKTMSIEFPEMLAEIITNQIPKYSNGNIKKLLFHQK

[34] = target: Glucocorticoid receptor (Homo sapiens) (UniProt P04150); test: Antagonist activity at human glucocorticoid receptor at 2 uM by cell based assay
[35] = target: Sodium-dependent noradrenaline transporter (Homo sapiens) (UniProt P23975); test: Inhibition of human norepinephrine transporter at 2 uM by cell based assay
[36] = target: GABA-A receptor; alpha-1/beta-2/gamma-2 (Homo sapiens) (UniProt P14867+P47870+P18507); test: Activation of human GABA alpha1beta2gamma2 receptor at 2 uM by cell based assay
[37] = species: Homo sapiens; test: Activation of human 5HT3A channel at 2 uM by cell based calcium flux assay
[38] = species: Homo sapiens; test: Inhibition of human 5HT3A channel at 2 uM by cell based calcium flux assay
[39] = target: T1, Voltage-gated potassium channel, IKs; KCNQ1(Kv7.1)/KCNE1(MinK) (Homo sapiens, UniProt P51787+P15382); test: Inhibition of human KvLQT1/mink at 2 uM by thallium flux assay; format: protein-complex assay
T1 sequence (P51787 whole entry): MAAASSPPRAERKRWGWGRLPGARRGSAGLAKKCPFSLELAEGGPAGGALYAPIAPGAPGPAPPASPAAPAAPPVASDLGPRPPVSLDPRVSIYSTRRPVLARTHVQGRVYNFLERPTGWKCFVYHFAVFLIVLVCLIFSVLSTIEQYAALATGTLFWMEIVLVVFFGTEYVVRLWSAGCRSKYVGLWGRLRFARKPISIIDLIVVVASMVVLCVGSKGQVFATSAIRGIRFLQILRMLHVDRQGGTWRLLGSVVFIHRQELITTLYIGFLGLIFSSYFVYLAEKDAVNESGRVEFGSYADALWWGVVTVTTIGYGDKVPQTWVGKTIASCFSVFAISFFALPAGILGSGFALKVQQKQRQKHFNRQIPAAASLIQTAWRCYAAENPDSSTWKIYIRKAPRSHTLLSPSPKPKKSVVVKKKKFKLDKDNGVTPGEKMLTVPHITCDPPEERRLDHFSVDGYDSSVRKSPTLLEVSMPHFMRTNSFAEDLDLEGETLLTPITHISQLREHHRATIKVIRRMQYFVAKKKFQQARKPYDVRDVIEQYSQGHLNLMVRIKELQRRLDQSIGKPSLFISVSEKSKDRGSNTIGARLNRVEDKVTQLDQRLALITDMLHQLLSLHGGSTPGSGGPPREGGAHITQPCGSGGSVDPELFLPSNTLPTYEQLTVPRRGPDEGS

[40] = target: T1, Voltage-gated potassium channel, IKs; KCNQ1(Kv7.1)/KCNE1(MinK); test: Activation of human KvLQT1/mink at 2 uM by thallium flux assay; format: protein-complex assay
[41] = target: Acetylcholinesterase (Homo sapiens) (UniProt P22303); test: Inhibition of human AChE at 2 uM
[42] = target: cGMP-inhibited 3',5'-cyclic phosphodiesterase 3A (Homo sapiens) (UniProt Q14432); test: Inhibition of human PDE3A at 2 uM
[43] = target: 3',5'-cyclic-AMP phosphodiesterase 4D (Homo sapiens) (UniProt Q08499); test: Inhibition of human PDE4D2 at 2 uM
[44] = target: Insulin receptor (Homo sapiens) (UniProt P06213); test: Inhibition of human INSR at 2 uM

Chain of Cannabinoid receptor 1 (Homo sapiens) (P21554 whole entry): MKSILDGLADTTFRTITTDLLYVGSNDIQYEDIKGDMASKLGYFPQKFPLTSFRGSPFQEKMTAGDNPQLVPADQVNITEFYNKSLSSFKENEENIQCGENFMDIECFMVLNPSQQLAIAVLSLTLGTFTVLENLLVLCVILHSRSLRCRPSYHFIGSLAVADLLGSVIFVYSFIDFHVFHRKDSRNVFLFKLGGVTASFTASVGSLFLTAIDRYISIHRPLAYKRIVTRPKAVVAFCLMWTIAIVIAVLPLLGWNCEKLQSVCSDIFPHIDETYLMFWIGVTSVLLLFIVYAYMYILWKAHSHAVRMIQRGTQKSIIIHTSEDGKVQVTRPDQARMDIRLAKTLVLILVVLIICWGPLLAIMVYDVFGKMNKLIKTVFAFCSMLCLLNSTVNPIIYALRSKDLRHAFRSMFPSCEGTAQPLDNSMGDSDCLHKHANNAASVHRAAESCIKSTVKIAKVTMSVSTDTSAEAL

CN(C)c1ccc(Nc2nc(-c3ccncc3)nc3c2CC(N)CC3)cc1 (centres undefined)
Activity [1]: inactive
Activity [2]: Not Active
Activity [3]: inactive
Activity [4]: inactive
Activity [5]: inactive
Activity [6]: inactive
Activity [7]: inactive
Activity [8]: inactive
Activity [9]: inactive
Activity [10]: inactive
Activity [11]: inactive
Activity [12]: inactive
Activity [13]: inactive
Activity [14]: inactive
Activity [15]: inactive
Activity [16]: inactive
Activity [17]: inactive
Activity [18]: inactive
Activity [19]: inactive
Activity [20]: inactive
Activity [21]: inactive
Activity [22]: inactive
Activity [23]: inactive
Activity [24]: inactive
Activity [25]: inactive
Activity [26]: inactive
Activity [27]: inactive
Activity [28]: inactive
Activity [29]: inactive
Activity [30]: inactive
Activity [31]: inactive
Activity [32]: inactive
Activity [33]: inactive
Activity [34]: inactive
inhibition [35]: inactive
Activity [36]: inactive
Activity [37]: inactive
inhibition [38]: inactive
inhibition (INH) [39]: Not Active
Activity [40]: Not Active
inhibition [41]: inactive
inhibition [42]: inactive
inhibition [43]: inactive
inhibition [44]: inactive
